Laboratory results: ChEMBL document CHEMBL3603749, “Ligand efficient tetrahydro-pyrazolopyridines as inhibitors of ERK2 kinase” (Bioorg Med Chem Lett, 2015)

Test system: Caco-2
Assay: Permeability of the compound from apical to basolateral side in human Caco2 cells
Assay type: ADME, cell-based

Row | SMILES | permeability
1 | CS(=O)(=O)c1cccc(Cn2ccc(N3CCc4[nH]nc(-c5ccncc5)c4C3)cc2=O)c1 | impermeable
2 | O=c1cc(N2CCc3[nH]nc(-c4ccncc4)c3C2)cc[nH]1 | permeable
